These results are taken from article PMC9502836, “Zika Virus Inhibitors Based on a 1,3-Disubstituted 1H-Pyrazolo[3,4-d]pyrimidine-amine Scaffold” (Molecules, 2022).

The structures appear in SMILES notation. pEC50: −log10 of the molar value. Read-outs that look alike come from different tables or passages of the source.

One data set has as its system ZIKV. Nature of the data set: ZIKV titer reduction assay (plaque assay of supernatants) in Huh7 cells. Conditions: Zika virus; for inhibition at 8.5 µM: Huh-7, 72 h, read-out: Titer Reduction Assay % at 8.5 µM. It counts as cell-based. Here is the method:
(§1) In the current study, we continued to use our previously reported luciferase-based ZIKV reporter assay as a primary antiviral screening, by which newly synthesized compounds were tested (at 10 µM) along with NITD008 (Figure 1, at 1 µM), a flavivirus RNA-dependent RNA polymerase (RdRp) inhibitor, and NSC 12155 (Figure 1, at 10 µM), a flavivirus NS5 methyltransferase (MTase) inhibitor, as reference compounds (Table 1). […] For active compounds (>60% titer-reduction), dose-response experiments were performed to determine EC50 (half maximal effective concentration, a concentration that is needed to cause half of the maximum possible pharmacological effect) and CC50 (half cytotoxic concentration, a concentration that is required to reduce cell viability by 50%) values. For selected compounds, EC50 values in the reporter assay were also measured.
(§2) The ZIKV reporter assay and titer-reduction assay were performed as previously reported. Briefly, Huh7 cells (1.5 × 10^4) were seeded in a 96-well plate and inoculated with a luciferase reporter ZIKV (MOI=0.2). After two hours, the cells were treated with medium containing the compound (10 µM). After 3 days post-infection, the cells were lysed, the Nanoluc signal was detected using the Nano-Glo® luciferase assay (Promega), then measured using a Neo 2 plate reader (BioTek, Winooski, VT, USA). For titer-reduction assays, 1.5 × 10^5 Huh7 cell were seeded in a 24-well plate. Next day, the cells were inoculated with ZIKV for two hours. The inoculum was replaced with compound-containing medium (8.5 µM) and incubated for 3 days. Supernatants were collected and viral titers were estimated by plaque assay.

The subject of the next data set is luciferase reporter ZIKV. Nature of the data set: luciferase-based ZIKV reporter assay in Huh7 cells. It counts as cell-based. The settings on record: Zika virus; for inhibition at 10 µM: Huh-7, 72 h, read-out: ZIKV Reporter Assay Inhibition (%) at 10 µM. How it is done: as §1, §2
In general terms: Reporter assays use an easily measured gene product as a stand-in for the process of interest.

Data set [1] is described as follows: Cell viability (CC50) assay, MTS-based. Conditions: human; for viability at 3 days, 10 µM: 10 µM compound, Huh7 cells, read-out: ZIKV Reporter Assay Viability (%) at 10 µM. How it is done: as §1
The cell viability assay was performed in Huh7 cells as previously reported. Briefly, non-infected Huh7 cells were treated with the testing compounds for 3 days. Viability was measured by absorbance at […] using the MTS-based tetrazolium reduction CellTiter 96 Aqueous Non-Radioactive cell proliferation assay (Promega).

[2] abbreviates: 8.5 µM compound, Huh7 cells, 3 days.
Where [3] appears, read: Huh-7, Huh7 cells, read-out: Titer Reduction Assay EC50.
Where [4] appears, read: non-infected Huh7 cells, 3 days, read-out: CC50.

For the compound `Nc1ncnc2c1c(COc1ccccc1)cn2Cc1ccc([N+](=O)[O-])cc1` [Compound 5, 7-(4-Nitrobenzyl)-5-(phenoxymethyl)-7H-pyrrolo[2,3-d]pyrimidin-4-amine], the inhibition at 8.5 µM in the data set on ZIKV (setting [2]) was found to be 94%. For the same compound, the negative-log EC50 (pEC50) in the data set with ZIKV (setting [3]) was 5.37. In the data set on luciferase reporter ZIKV, the inhibition at 10 µM amounted to 62%. The viability at 3 days, 10 µM in data set [1] (3 days) was 82%. In data set [1] (setting [4]), the CC50 at 3 days was found to be 58 µM.
The corresponding values for `Nc1ncnc2c1c(COc1ccccc1)nn2Cc1ccc([N+](=O)[O-])cc1` [Compound 6, 1-(4-Nitrobenzyl)-3-(phenoxymethyl)-1H-pyrazolo[3,4-d]pyrimidin-4-amine] are 65%, 5.29, 65%, 82% and 39 µM.
Regarding `Nc1ncnc2c1c(COc1ccccc1)nn2Cc1ccc(C(F)(F)F)cc1` [Compound 13, 3-(Phenoxymethyl)-1-(4-(trifluoromethyl)benzyl)-1H-pyrazolo[3,4-d]pyrimidin-4-amine], the inhibition at 8.5 µM with ZIKV (setting [2]) turned out to be 73%. In addition, the negative logarithm of the EC50 (pEC50) with ZIKV (setting [3]) was 5.19. Besides, the inhibition at 10 µM in the data set on luciferase reporter ZIKV amounted to 68%. Further, the viability at 3 days, 10 µM in data set [1] (3 days) worked out at 86%. In addition, the CC50 at 3 days in data set [1] (setting [4]) was above 100 µM.
As for `CS(=O)(=O)c1ccc(Cn2nc(COc3ccccc3)c3c(N)ncnc32)cc1` [Compound 14, 1-(4-(Methylsulfonyl)Benzyl)-3-(phenoxymethyl)-1H-pyrazolo[3,4-d]pyrimidin-4-amine], the inhibition at 8.5 µM with ZIKV (setting [2]) was 52%. Besides, in the data set with luciferase reporter ZIKV, the inhibition at 10 µM came to 58%. In addition, the viability at 3 days, 10 µM in data set [1] (3 days) came out at 93%.
For `NC(=O)c1ccc(Cn2nc(COc3ccccc3)c3c(N)ncnc32)cc1` [Compound 19, 4-((4-Amino-3-(phenoxymethyl)-1H-pyrazolo[3,4-d]pyrimidin-1-yl)methyl)benzamide], the inhibition at 8.5 µM with ZIKV (setting [2]) stood at 22%. For the same compound, the inhibition at 10 µM in the data set on luciferase reporter ZIKV came out at 63%. In addition, the viability at 3 days, 10 µM in data set [1] (3 days) was determined as 77%.
Regarding `Nc1ncnc2c1c(COc1ccccc1)nn2Cc1ccc(Cl)nc1` [Compound 21, 1-((6-Chloropyridin-3-yl)methyl)-3-(phenoxymethyl)-1H-pyrazolo[3,4-d]pyrimidin-4-amine], the inhibition at 8.5 µM with ZIKV came to 74%. Further, the pEC50 with ZIKV (Huh-7, read-out: Titer Reduction Assay EC50) is 5.28; in the data set with luciferase reporter ZIKV (Huh-7, read-out: ZIKV Reporter Assay EC50), 5.46. In addition, in the data set on luciferase reporter ZIKV, the inhibition at 10 µM amounted to 82%. Also, half-maximal cytotoxicity in data set [1] (CC50 at 3 days) was put at 25 µM. In addition, the viability at 3 days, 10 µM in data set [1] (3 days) amounted to 64%.
For `Nc1ccc(Cn2nc(COc3ccccc3)c3c(N)ncnc32)cn1` [Compound 23, 1-((6-Aminopyridin-3-yl)methyl)-3-(phenoxymethyl)-1H-pyrazolo[3,4-d]pyrimidin-4-amine], in the data set on ZIKV (setting [2]), the inhibition at 8.5 µM was determined as 20%. Moreover, in the data set on luciferase reporter ZIKV, the inhibition at 10 µM was 49%. In data set [1] (3 days), the viability at 3 days, 10 µM amounted to 82%.
For the compound `CC(C)(C)OC(=O)Nc1cc(Cn2nc(COc3ccccc3)c3c(N)ncnc32)ccn1` [Compound 24, Tert-Butyl (4-((4-Amino-3-(phenoxymethyl)-1H-pyrazolo[3,4-d]pyrimidin-1-yl)methyl)pyridin-2-yl)carbamate], in the data set on luciferase reporter ZIKV, the inhibition at 10 µM came out at 62%. For the same compound, the viability at 3 days, 10 µM in data set [1] (3 days) was found to be 36%.
Take `CC(C)(C)OC(=O)Nc1ccc(Cn2nc(COc3ccccc3)c3c(N)ncnc32)cn1` [Compound 25, Tert-Butyl (5-((4-Amino-3-(phenoxymethyl)-1H-pyrazolo[3,4-d]pyrimidin-1-yl)methyl)pyridin-2-yl)carbamate]: the inhibition at 10 µM in the data set on luciferase reporter ZIKV was 68%. The viability at 3 days, 10 µM in data set [1] (3 days) worked out at 40%.
The corresponding values for `Cc1ccccc1OCc1nn(Cc2ccc([N+](=O)[O-])cc2)c2ncnc(N)c12` [Compound 26, 1-(4-Nitrobenzyl)-3-((o-tolyloxy)methyl)-1H-pyrazolo[3,4-d]pyrimidin-4-amine] are 60% and 77%.
In the same order, the values of `Nc1ncnc2c1c(COc1ccccc1Cl)nn2Cc1ccc([N+](=O)[O-])cc1` [Compound 29, 3-((2-Chlorophenoxy)methyl)-1-(4-nitrobenzyl)-1H-pyrazolo[3,4-d]pyrimidin-4-amine] are 34% and 94%.

As usually defined, the pEC50 is the EC50 on a negative log10 scale, so that one unit is a factor of ten. In general, viability refers to the share of living cells, or the viability signal relative to a control. As a reminder, the CC50 is the concentration giving 50% cytotoxicity.
